According to BindingDB's records for doi:10.7270/Q2TX3CTT (Broad Institute, 2010):
Where a name gives a salt, the structure may show the parent alone.

Target: Glycogen synthase kinase-3 beta (Homo sapiens, UniProt P49841)
Test: GSK3beta kinase inhibitor potency, dose response, biochemical, luminescence, cell-free homogeneous, retest (AID 434954)

Sequence of Glycogen synthase kinase-3 beta (P49841 whole entry): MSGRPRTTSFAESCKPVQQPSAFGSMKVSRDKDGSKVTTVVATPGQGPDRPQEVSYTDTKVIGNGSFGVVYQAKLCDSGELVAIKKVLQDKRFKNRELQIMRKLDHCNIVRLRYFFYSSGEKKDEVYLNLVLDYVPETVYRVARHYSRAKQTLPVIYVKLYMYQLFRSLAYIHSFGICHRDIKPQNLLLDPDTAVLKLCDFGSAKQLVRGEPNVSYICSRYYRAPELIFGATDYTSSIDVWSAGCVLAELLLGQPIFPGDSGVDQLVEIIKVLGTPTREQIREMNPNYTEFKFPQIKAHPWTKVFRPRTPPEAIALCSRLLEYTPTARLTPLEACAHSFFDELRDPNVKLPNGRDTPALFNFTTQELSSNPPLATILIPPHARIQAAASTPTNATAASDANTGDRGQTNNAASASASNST

Compound	EC50 [µM]
CCNc1nc(N)nc(Oc2ccc(OCCOc3ccc(Cl)cc3Cl)nn2)n1 [6-[6-[2-(2,4-dichlorophenoxy)ethoxy]pyridazin-3-yl]oxy-2-N-ethyl-1,3,5-triazine-2,4-diamine]	> 300
CCC(=O)Nc1sc2c(c1C(N)=O)CCN(C(C)=O)C2 [6-acetyl-2-(1-oxopropylamino)-5,7-dihydro-4H-thieno[2,3-c]pyridine-3-carboxamide]	13.8
CC(=O)N1CCc2c(sc(NC(=O)C3CCCN3S(=O)(=O)c3cccs3)c2C(N)=O)C1 (stereo unspecified) [6-acetyl-2-[(1-thiophen-2-ylsulfonylpyrrolidine-2-carbonyl)amino]-5,7-dihydro-4H-thieno[2,3-c]pyridine-3-carboxamide]	> 300
CC(=O)N1CCc2c(sc(NC(=O)CN3C(=O)CCC3=O)c2C(N)=O)C1 [6-acetyl-2-[[2-(2,5-dioxopyrrolidin-1-yl)acetyl]amino]-5,7-dihydro-4H-thieno[2,3-c]pyridine-3-carboxamide]	2.29
CC(=O)N1CCc2c(sc(NC(=O)Cc3ccc(F)cc3)c2C(N)=O)C1 [6-acetyl-2-[[2-(4-fluorophenyl)-1-oxoethyl]amino]-5,7-dihydro-4H-thieno[2,3-c]pyridine-3-carboxamide]	47.2
Nc1ccc2oc(-c3ccccc3Cl)cc(O)c-2c1=O [6-amino-2-(2-chlorophenyl)-5-hydroxy-1-benzopyran-4-one]	> 300
CCOC(=O)c1cnc2ccc(Cl)cc2c1N1CCN(C)CC1 [6-chloro-4-(4-methyl-1-piperazinyl)-3-quinolinecarboxylic acid ethyl ester]	14.8
CC(C)c1ccc(NS(=O)(=O)c2ccc(Cl)nc2)cc1 [6-chloro-N-(4-propan-2-ylphenyl)pyridine-3-sulfonamide]	> 300
COc1cccc(-c2nnc3sc(C4CCCCC4)nn23)c1 [6-cyclohexyl-3-(3-methoxyphenyl)-[1,2,4]triazolo[3,4-b][1,3,4]thiadiazole]	16.3
CC(=O)N1CCc2c(sc(NC(=O)CCS(=O)(=O)c3ccc(C)cc3)c2C(N)=O)C1 [6-ethanoyl-2-[3-(4-methylphenyl)sulfonylpropanoylamino]-5,7-dihydro-4H-thieno[2,3-c]pyridine-3-carboxamide]	26.2
CCN1CCc2c(sc(NC(=O)Cc3ccccc3)c2C(N)=O)C1 [6-ethyl-2-[(1-oxo-2-phenylethyl)amino]-5,7-dihydro-4H-thieno[2,3-c]pyridine-3-carboxamide;hydrochloride]	> 300
CCSc1ccc2nnc(-c3cccs3)n2n1 [6-ethylsulfanyl-3-thiophen-2-yl-[1,2,4]triazolo[4,3-b]pyridazine]	11.3
Cc1cc2oc(=O)cc(Cn3ccnc3)c2cc1O [6-hydroxy-4-(imidazol-1-ylmethyl)-7-methylchromen-2-one]	> 300
CCOC(=O)c1cnc2ccc(OC)cc2c1Nc1ccc(N2CCN(C)CC2)cc1 [6-methoxy-4-[4-(4-methyl-1-piperazinyl)anilino]-3-quinolinecarboxylic acid ethyl ester]	5.26
Cc1ccc2nc(-c3ccccc3)cn2c1 [6-methyl-2-phenyl-imidazo[1,2-a]pyridine;hydrobromide]	29
CCOC(=O)c1cnc2ccc(C)cc2c1Nc1ccc(N2CCOCC2)cc1 [6-methyl-4-(4-morpholinoanilino)quinoline-3-carboxylic acid ethyl ester]	> 300
O=C(NCCCN1CCCCC1)c1ccc2c(c1)NC(=O)c1ccccc1S2 [6-oxidanylidene-N-(3-piperidin-1-ylpropyl)-5H-benzo[b][1,4]benzothiazepine-3-carboxamide]	> 300
N#Cc1c(O)nc(SCC(=O)c2cccs2)nc1-c1cccs1 [6-oxo-2-{[2-oxo-2-(2-thienyl)ethyl]sulfanyl}-4-(2-thienyl)-1,6-dihydro-5-pyrimidinecarbonitrile]	> 300
O=C1CCCC2=Nc3ccccc3NC(c3cccs3)C12 (stereo unspecified) [6-thiophen-2-yl-5,6,8,9,10,11-hexahydrobenzo[b][1,4]benzodiazepin-7-one]	> 300
COc1cccc(C2CC(c3ccc(Cl)cc3)n3nc(N)nc3N2)c1 (stereo unspecified) [7-(4-chlorophenyl)-5-(3-methoxyphenyl)-1,5,6,7-tetrahydro-[1,2,4]triazolo[1,5-a]pyrimidin-2-amine]	> 300
CN(C)Cc1c(O)ccc2c1O/C(=C\C=C\c1ccccc1)C2=O [7-Dimethylaminomethyl-6-hydroxy-2-[(E)-3-phenyl-prop-2-en-(Z)-ylidene]-benzofuran-3-one]	31.4
O=C1C[C@@H](c2ccc(O)cc2)Oc2cc(O)ccc21 [7-Hydroxy-2-(4'-hydroxyphenyl)chroman-4-one]	> 300
O=c1oc2cc(O)ccc2cc1-c1ccccc1 [7-Hydroxy-3-phenyl-chromen-2-one]	> 300
O=c1cc(-c2ccccc2)c2ccc(O)cc2o1 [7-Hydroxy-4-phenyl-chromen-2-one]	24.6
CC(C)C1Cc2c(sc3c2c(=O)n(-c2ccccc2)c2n[nH]c(=S)n32)CO1 (stereo unspecified) [7-Isopropyl-1-mercapto-4-phenyl-6,9-dihydro-4H,7H-8-oxa-10-thia-2,3,4,10b-tetraaza-cyclopenta[a]fluo ren-5-one]	> 300
O=S(=O)(c1ccc(Br)cc1)N1CCN(c2cc(-c3ccccc3)nc3ncnn23)CC1 [7-[4-(4-bromophenyl)sulfonyl-1-piperazinyl]-5-phenyl-[1,2,4]triazolo[1,5-a]pyrimidine]	> 300

Compound	EC50 [µM]
Cc1c(CN(C)C)c2c(n1C)C(=O)c1ccc(Br)cc1-2 [7-bromo-1-[(dimethylamino)methyl]-2,3-dimethyl-4-indeno[2,3-b]pyrrolone;hydrochloride]	17.8
O=C1NCCCc2c1oc1ccc(O)cc21 [7-hydroxy-2,3,4,5-tetrahydro-[1]benzofuro[2,3-c]azepin-1-one]	2.07
COc1ccc(-c2cc(=O)oc3c(C)c(O)ccc23)cc1 [7-hydroxy-4-(4-methoxyphenyl)-8-methylchromen-2-one]	> 300
Cc1c(O)ccc2c(-c3ccccc3)cc(=O)oc12 [7-hydroxy-8-methyl-4-phenyl-1-benzopyran-2-one]	> 300
CSc1nc(N)c2c3c(sc2n1)CN(C)CC3 [7-methyl-2-methylsulfanyl-6,8-dihydro-5H-pyrido[4,5]thieno[1,2-c]pyrimidin-4-amine]	73.2
Cc1ccc2c(c1)Oc1ccc([N+](=O)[O-])cc1C(=O)N2 [7-methyl-2-nitrodibenzo[b,f][1,4]oxazepin-11(10H)-one]	> 300
CSc1nc2c(c(=O)[nH]1)C(c1ccccc1)C1C(=O)CC(C)(C)CC1=N2 (stereo unspecified) [8,8-dimethyl-2-(methylthio)-5-phenyl-5,8,9,10-tetrahydropyrimido[4,5-b]quinoline-4,6(3H,7H)-dione]	> 300
CC(C)Sc1nc2c(c(=O)[nH]1)C(c1cccs1)C1C(=O)CC(C)(C)CC1=N2 (stereo unspecified) [8,8-dimethyl-2-propan-2-ylsulfanyl-5-thiophen-2-yl-5,7,9,10-tetrahydro-1H-pyrimido[4,5-b]quinoline-4,6-dione]	> 300
Cc1ccc(C2c3c([nH]c(=S)[nH]c3=O)N=C3CC(C)(C)CC(=O)C32)cc1 (stereo unspecified) [8,8-dimethyl-5-(4-methylphenyl)-2-sulfanylidene-5,7,9,10-tetrahydro-1H-pyrimido[4,5-b]quinoline-4,6-dione]	> 300
CC1(C)CC(=O)C2C(=Nc3[nH]c(=S)[nH]c(=O)c3C2c2ccccc2)C1 (stereo unspecified) [8,8-dimethyl-5-phenyl-2-sulfanylidene-5,7,9,10-tetrahydro-1H-pyrimido[4,5-b]quinoline-4,6-dione]	> 300
COc1cc2[nH]c(=O)n3nc(-c4ccccc4)nc3c2cc1OC [8,9-dimethoxy-2-phenyl[1,2,4]triazolo[1,5-c]quinazolin-5(6H)-one]	5.34
Cc1oc2c(CN(C)C)c(O)ccc2c(=O)c1-c1ccc2ccccc2n1 [8-[(dimethylamino)methyl]-2-methyl-7-oxidanyl-3-quinolin-2-yl-chromen-4-one]	> 300
CCc1c(C)c2ccc(O)c(CN(C)C)c2oc1=O [8-[(dimethylamino)methyl]-3-ethyl-4-methyl-7-oxidanyl-chromen-2-one]	> 300
COc1ccccc1Oc1coc2c(CN(C)C)c(O)ccc2c1=O [8-[(dimethylamino)methyl]-7-hydroxy-3-(2-methoxyphenoxy)chromen-4-one]	> 300
COc1ccccc1-c1coc2c(CN(C)C)c(O)ccc2c1=O [8-[(dimethylamino)methyl]-7-hydroxy-3-(2-methoxyphenyl)chromen-4-one]	> 300
O=c1cc(-c2ccccc2Cl)oc2c(Br)ccc(O)c12 [8-bromo-2-(2-chlorophenyl)-5-hydroxy-1-benzopyran-4-one]	> 300
COc1ccc2c(c1)C(=O)Nc1cc(Cl)ccc1N2 [8-chloro-2-methoxy-5,10-dihydro-11H-dibenzo[b,e][1,4]diazepin-11-one]	> 300
COc1cccc2cc(CC(=O)c3ccccc3)c(=O)oc12 [8-methoxy-3-(2-oxo-2-phenylethyl)-2H-chromen-2-one]	> 300
COc1cccc2cc(C(=O)CS(=O)(=O)c3ccc(C)cc3)c(=O)oc12 [8-methoxy-3-[2-(4-methylphenyl)sulfonylethanoyl]chromen-2-one]	> 300
COc1ccc2c(c1)-c1c(ssc1=S)C(C)(C)N2S(=O)(=O)c1ccc(C)cc1 [8-methoxy-4,4-dimethyl-5-(4-methylphenyl)sulfonyl-[1,2]dithiolo[3,4-c]quinoline-1-thione]	> 300
COc1cccc2cc(C(=O)N(C)C)c(=O)oc12 [8-methoxy-N,N-dimethyl-2-oxo-1-benzopyran-3-carboxamide]	> 300
COc1cccc2cc(C(=O)NCc3ccc(C)cc3)c(=O)oc12 [8-methoxy-N-(4-methylbenzyl)-2-oxo-2H-chromene-3-carboxamide]	> 300
Cc1ccc2c(c1)NC(=O)c1cc([N+](=O)[O-])ccc1O2 [8-methyl-2-nitrodibenzo[b,f][1,4]oxazepin-11(10H)-one]	> 300
Cc1ccc(S(=O)(=O)CC(=O)c2cc3cccc(C)c3oc2=O)cc1 [8-methyl-3-[2-(4-methylphenyl)sulfonyl-1-oxoethyl]-1-benzopyran-2-one]	> 300
CC1(C)CC(=O)C2C(=Nc3ccccc3NC2c2cccs2)C1 (stereo unspecified) [9,9-dimethyl-6-thiophen-2-yl-6,8,10,11-tetrahydro-5H-benzo[b][1,4]benzodiazepin-7-one]	> 300
